Laboratory results taken from article PMC7060258 (Scientific Reports, 2020).
No end group written: not given here.

Legend:
trypsin [1] = experiment: Thermodynamic parameters of complexes with trypsin; type: binding; details: complex with trypsin, SPR
Experimental: The magnitudes of free energy change (∆G) of the complexes differed slightly from the same complexes of HCRG1 and HCRG2 and were lower than for the InhVJ ones.
The study of the interaction of serine proteinases with rHCIQ2c1 and rHCIQ4c7 was performed on SPR biosensor Biacore 3000 (GE Healthcare, USA) running under the program “Biacore 3000 Control Software v.1.0”. The evaluation of data was carried out using “Biacore Evaluation v.4.1”. Peptides were covalent immobilized on carboxymethylated surface of the Biacore CM4 sensor chip (GE Healthcare, USA) activated by EDC/NHS (N-hydroxysuccinimide/1-ethyl-3-(3-dimethylaminopropyl)carbodiimide hydrochloride) mixture by the injection of peptide solution (100 µg/ml) in 10 mM sodium acetate (pH 5.5) during 10 min with flow rate 5 µl/min. Quantities of immobilized peptides were 970 RU (resonance units, 1 RU corresponds 1 pg peptide) for rHCIQ2c1 and 460 RU for rHCIQ4c7. In all of the experiments, the flow cell 1 (Fc1) without the immobilized polypeptides was considered as the reference cell for the correction of the signal responses. […] Further complex breakdown was recorded during at most 10 min. […] Changes in enthalpy (ΔH) and entropic term (−TΔS) were calculated from the linear equation:2 ΔG=ΔH−TΔS, using the liner approximation of temperature dependence of ΔG (Van’t Hoff diagram).

rKv1.4 = experiment: Two-electrode voltage clamp, rKv1.4 in X. laevis oocytes; type: cell-based; details: 10 μM, 18–22 °C, n ≥ 3
Experimental: For the expression of the voltage-gated potassium channels (rKv1.1, rKv1.2, hKv1.3, rKv1.4, rKv1.5, rKv1.6, Shaker IR and hERG) in X. laevis oocytes, the linearized plasmids were transcribed using the T7 or SP6 mMESSAGE-mMACHINE transcription kit (Ambion, USA). The harvesting of stage V–VI oocytes from an anaesthetized female X. laevis frog was previously described. Oocytes were injected with 50 nl of cRNA at a concentration of 1 ng/nl using a micro-injector (Drummond Scientific, USA). The oocytes were incubated in a solution containing (in mM): NaCl, 96; KCl, 2; CaCl2, 1.8; MgCl2, 2; HEPES, 5 (pH 7.4), supplemented with 50 mg/l gentamycin sulfate.
Two-electrode voltage-clamp recordings were performed at room temperature (18–22 °C) using a Geneclamp 500 amplifier (Molecular Devices, USA) controlled by a pClamp data acquisition system (Axon Instruments, USA), as described in[47]. Whole cell currents from oocytes were recorded 1–4 days after injection. Bath solution composition was ND96 (in mM): NaCl, 96; KCl, 2; CaCl2, 1.8; MgCl2, 2 and HEPES, 5 (pH 7.4). Voltage and current electrodes were filled with 3 M KCl. The resistances of both electrodes were kept between 0.7 and 1.5 MΩ. […] All data were analysed using pClamp Clampfit 10.0 (Molecular Devices, Downingtown, PA, USA) and Origin 7.5 software (Originlab, Northampton, MA, USA).

[2] = tested on: murine neuroblastoma Neuro2a cells; experiment: 6-OHDA-induced cytotoxicity, cell viability (MTT); type: cell-based; details: for Increase of cell viability relative to cells treated with 6-OHDA: 10 μM peptide, 30 min before 6-OHDA 25 µM, mean of three independent experiments
Experimental: Effects of rHCIQ2c1 and rHCIQ4c7 were studied using murine neuroblastoma Neuro2a cells in the presence of 6-OHDA (25 µM). After incubation of Neuro2a cells with recombinant peptides and 6-OHDA for 24 h, the cell viability was evaluated using MTT assay.
The cytoprotective activities of peptides was examined, as described previously. Neuro2a murine neuroblastoma cells (ATCC CCL-131) (American Type Culture Collection, Virginia, USA) were cultivated in DMEM medium (BioloT, Russia) with 10% of fetal bovine serum (FBS, BioloT, Russia) and 80 µg/ml gentamicine (BioloT, Russia). The cells were seeded onto 96-well plate at concentration of 1 × 10^3 cells per well. Substances were added at different concentrations, and then cells were incubated for 30 min at 37 °C and 5% CO2. Cells were treated with 6-OHDA (25 μM) for 24 h at 37 °C with 5% CO2. Thereafter, medium was replaced with clean serum-free medium, and cells were treated with 3-(4,5-dimethylthiazol-2-yl)-2,5-diphenyltetrazolium bromide (MTT) for 4 h[77]. Then the medium was collected and whole cells were lysed in 100% dimethylsulfoxide (DMSO), the absorbance was measured at 570 nm using Multiscan FC (Thermo Fisher Scientific, USA). […] The results were expressed as the mean ± SD of three independent experiments.

trypsin [3] = experiment: Trypsin inhibitory activity (BAPNA, Dixon); type: biochemical; details: BAPNA 0.6 and 1.2 mM, Dixon method; trypsin 208 nM; peptide 0–26.6 µM (rHCIQ2c1), 0–24 µM (rHCIQ4c7); three parallel experiments; error limits 0.1–0.5%
Experimental: The trypsin inhibitory activity of HCIQ peptides was estimated according to the standard procedure using N-α-benzoyl-D,L-arginine p-nitroanilide (BAPNA) as a substrate. The trypsin inhibition constants of rHCIQ2c1 and rHCIQ4c7 were determined by the method of Dixon[74] using substrate (BAPNA) concentrations of 0.6 and 1.2 mM. The trypsin concentration in the reaction mixture was 208 nM. The range of peptide concentrations was 0–26.6 µM for rHCIQ2c1 and 0–24 µM for rHCIQ4c7. The constants (Ki) were calculated based on the results of three parallel experiments. Computational error limits were in the range of 0.1–0.5%.

Row | Substance | ∆H, enthalpy change (trypsin [1]; 10–40 °С, Van't Hoff diagram) [kcal/mol] | ∆G, Gibbs energy change (trypsin [1]; 25 °C, ΔG=RTlnKD) | Activity on Kv1.4 (rKv1.4) | Increase of cell viability relative to cells treated with 6-OHDA ([2]; 24 h, MTT) [%] | Significance of effect on viability of 6-OHDA-treated cells ([2]; 10 μM, 6-OHDA 25 µM, 24 h, * p < 0.05) | Toxicity to Neuro2a cells ([2]; 10 μM, MTT) | Concentration of maximum cytoprotective activity ([2]; 6-OHDA 25 µM, 24 h, MTT) [µM] | Dose-response of cytoprotective effect ([2]; 6-OHDA 25 µM, 24 h, MTT) | Ki (trypsin [3]) [nM]
1 | rHCIQ2c1: recombinant Kunitz-peptide of Heteractis crispa, most prevalent isoform, mature peptide 58 aa, expressed in E. coli (IQGNICSEPKKVGRCRGSFPRFYFDSETGKCTPFIYGGCGGNGNNFETLHACRAICRA; ends and bridges not checked; cysteine pairing not given here) | 17.28 | –54.70 kJ/mol | neither 10 μM of rHCIQ2c1 nor rHCIQ4c7 exerted any activity on the Kv channels | 47 | The reliable effect was revealed | non-toxic | 10 | linear dose-dependent character | –
2 | rHCIQ4c7: recombinant Kunitz-peptide of Heteractis crispa, isoform with the rare substitution Gly17Glu | – | – | neither 10 μM of rHCIQ2c1 nor rHCIQ4c7 exerted any activity on the Kv channels | 14 | – | non-toxic | – | – | 190
